Results taken from patent publication US20150079000A1, “Labelled Quinoxaline Derivatives as Multimodal Radiopharmaceuticals and Their Precursors” (INSTITUT NATIONAL DE LA SANTET DE LA RECHERCHE MEDICALE, priority 2012, published 2015).

Legend:
[1] = tested on: B16BL6 tumour; assay: PET imaging in B16BL6 tumour bearing mice; assay type: in vivo, C57BL/6J mice; conditions: 1 h p.i., day-15
Protocol: All our studies were performed in accordance with French and European Economic Community (86-609, EEC) guidelines for care of laboratory animals. Protocols were performed under the authorization of the French Direction des Services Veterinaires (authorization no. CE 86-12). Male C57BL/6J mice were originating from Charles River laboratories and maintained at 21° C. with a 12 h/12 h light/dark cycle, fed with a breeding diet (diet A04 from Safe, Villemoisson, France) and received water ad libitum. For transplantation B16BL6 cell suspension were grown in a monolayer culture to confluence, after which cells were trypsinized, washed with phosphate buffer saline (PBS) and they were resuspended in PBS. Mice were anesthetized by isoflurane (4% for induction and 2±0.5% for maintaining in oxygen flux) inhalation. The primary tumour model was induced by subcutaneous injection of 3×10^5 melanoma B16B16 cells in 0.1 mL on the right shoulder of mice.
Whole-body PET scans were acquired 1 h after bolus injection of […] of the appropriate [^18F]-compound in a volume of 0.15 ml via the tail vein. Mice were anesthetized by intraperitoneal (i.p.) administration (200 μL/mouse) of a ketamine-xylazine mixture in saline: ketamine (100 mg/kg, Imalgene™, Rhône Mérieux, Lyon, France) and xylazine (10 mg/kg, Rompun™, Bayer, France) before radiotracer injection and imaged by using a small-animal PET device, eXplore Vista microPET instrument (GE Healthcare). PET images were acquired by using static mode during 20 min. The acquired data were reconstructed using the 2-Dimensional ordered-subsets expectation maximization (OSEM) algorithm and corrected from decay, scatter and randoms. No corrections were applied for partial volume or attenuation.
Regional tracer uptake was quantified by standard region-of-interest (ROI) analysis with eXplore Vista software package. A manual 2D-ROI was drawn around the tumour in each slice where tumour was visible, and on several subsequent coronal planes containing muscle tissue at the forelimb. Results are expressed by percentage of injected dose per gram of tissue (% ID/g).
PET imaging was performed 1 h post injection of tracers in B16BL6 tumour bearing mice at day-15 after tumours cell inoculation.

[2] = radiochemical stability of the radiotracer after preparation; assay type: physicochemical
[3] = tested on: SKMEL-3 tumours; assay: PET imaging in SKMEL-3 tumour bearing mice; assay type: in vivo, Swiss nudes mice; conditions: 1 h p.i.
Protocol: (§1) Protocols were performed under the authorization of the French Direction des Services Veterinaires (authorization no. CE 86-12). Female Swiss nudes mice (6 weeks old) were originating from Charles River laboratories and maintained at 21° C. with a 12 h/12 h light/dark cycle, fed with a breeding diet (diet A04 from Safe, Villemoisson, France) and received water ad libitum. For transplantation cell suspension were grown in a monolayer culture to confluence, after which cells were trypsinized, washed with phosphate buffer saline (PBS) and they were resuspended in PBS. Mice were anesthetized by isoflurane (4% for induction and 2±0.5% for maintaining in oxygen flux) inhalation. The primary tumour model was induced by subcutaneous injection of 3×10^6 melanoma SKMEL-3 (pigmented cell line) or A375 (non-pigmented cell ligne) cells in 0.1 mL on the right shoulder of mice.
(§2) Whole-body PET scans were acquired 1 h after bolus injection of 10 MBq of [^18F](1) in a volume of 0.15 ml via the tail vein. […]
(§3) Regional tracer uptake was quantified by standard region-of-interest (ROI) analysis with eXplore Vista software package. […]

[4] = tested on: A375 tumours; assay: PET imaging in A375 tumour bearing mice; assay type: in vivo, Swiss nudes mice; conditions: 1 h p.i.
Protocol: as §1, §2, §3

[5] = [18F](1) stability study on ex vivo extracts; assay type: in vivo, mice
Protocol: Six primary melanoma bearing mice were intravenously injected with 18 MBq of [^18F](1) and sacrificed 30 min, 1 h and 2 h after tracer injection. To determine the metabolic stability of [^18F](1), blood, tumour, eyes, liver and urine samples were collected. Blood was immediately centrifuged for 5 min at 3,000 rpm and plasma directly investigated by analytical HPLC. Other organs were pooled and homogenized using GentleMACS™ dissociator (Miltenyi Biotec, Bergisch Gladbach, Germany), suspended in 5 mL of methanol/NH4OH 99.8:0.2 and centrifuged for 5 min at 3,000 rpm. The extraction efficiency was determined by measuring the radioactivity of supernatants and precipitates. Supernatants were passed through a 0.22 μm Millipore filter and then concentrated to a volume between 200 and 500 μL before injection (duplicate) onto the analytical HPLC (Waters Symmetry® C18; Gradient elution: 60% to 90% MeOH (0.4% NH4OH) in water (0.4% NH4OH) (10 min), then 60% for 7 min).

[6] = octanol/water (PBS buffer) partition coefficient (log D); assay type: physicochemical

For CCN(CCNC(=O)c1cnc2cc(I)ccc2n1)CCOCCOCCOCC[18F] [[^18F](1)], the eyes uptake [1] was 10.50±2.95 % ID/g, the intestine uptake [1] was 4.07±1.39 % ID/g and the muscles activity [1] was 1.37±0.37 % ID/g. The pigmented spleen uptake [1] was 7.38±0.73 % ID/g, the tumour uptake [1] was 14.33±2.11 % ID/g and the tumour/muscle ratio [1] was 11.04±2.87. The “radiochemically stable at room temperature after preparation” value [2] was “at least 24 h”, the muscles activity ([3]; SKMEL-3 tumour bearing mice) was 1.34±0.42 % ID/g and the tumour uptake ([3]; day-27, pigmented SKMEL-3 tumours) was 4.65±1.07 % ID/g. The muscles activity ([4]; A375 tumour bearing mice) was 1.14±0.28 % ID/g, the tumour uptake ([4]; day-23, unpigmented A375 tumours) was 1.87±0.34 % ID/g and the “% unchanged [18F](1)” value ([5]; Black, Blood, 30 min) was 15.2%. For the same compound, the “% unchanged [18F](1)” value ([5]; Black, Eyes, 1 h) was 100%, the “% unchanged [18F](1)” value ([5]; Black, Eyes, 2 h) was greater than 99% and the “% unchanged [18F](1)” value ([5]; Black, Liver, 1 h) was less than 10%. The “% unchanged [18F](1)” value ([5]; Black, Liver, 2 h) was less than 20%, the “% unchanged [18F](1)” value ([5]; Black, Tumour, 1 h) was greater than 99% and the “% unchanged [18F](1)” value ([5]; Black, Tumour, 2 h) was 100%. For the same compound, the “% unchanged [18F](1)” value ([5]; Black, Urine, 1 h) was 0.1%, the “% unchanged [18F](1)” value ([5]; Black, Urine, 2 h) was 0.0% and the “% unchanged [18F](1)” value ([5]; Nude, Blood, 30 min) was 3.0%. The “% unchanged [18F](1)” value ([5]; Nude, Liver, 2 h) was less than 10%, the “% unchanged [18F](1)” value ([5]; Nude, Tumour, 1 h) was greater than 99% and the “% unchanged [18F](1)” value ([5]; Nude, Tumour, 2 h) was greater than 99%. For the same compound, the “% unchanged [18F](1)” value ([5]; Nude, Urine, 1 h) was 2.7%, the “% unchanged [18F](1)” value ([5]; Nude, Urine, 2 h) was 1.4% and the “octanol/water (PBS buffer) partition coefficient (log D)” value [6] was 1.52±0.03.
